Test results: patent US20110070232A1, “Combination Therapy with an Antitumor Alkaloid” (Pharma Mar, S.A., priority 2008, published 2011)
Where two headings read alike, the source gives them in different places.

Columns and labels:
Type in all cases: in vivo, mice
[1] = system: BxPC-3 tumors; settings: mg/kg/day: PM00104 0.90 IV
Experimental: (§1) Female CB17.SCID mice (Charles River Lab.) were utilized for all experiments. Animals were housed in ventilated rack caging with food and water ad libitum. The mice were acclimated for at least 5 days prior to tumor implantation with a tumor cell suspension.
(§2) The tumor model used in these studies was BxPC-3 cell line, which was obtained from the ATCC (Manassas, Va.).
Treatments were initiated on DPI 9.
(§3) Tumor size measurements were recorded twice weekly from the treatment initiation until the termination of the study.
(§4) Mean, standard deviation and standard error of the mean were determined for tumor volume for all animal groups at all assessments. Student's t test was performed on tumor volumes at each measurement day, including at the end of the study, to determine whether there were any statistically significant differences between combination treatment groups and single monotherapy treatment groups.

[2] = system: MRI-H-254 tumors; settings: for % T/C on day 17 / % T/C on day 20 / % T/C on day 24 / % T/C on day 27 / % T/C on day 32 / % T/C on day 35 / % T/C on day 39 / % T/C on day 47: doxorubicin 6 IP
Experimental: Female athymic nude mice (Harlan Sprague Dawley, Madison, Wis.) were utilized for all experiments. Animals were housed in ventilated rack caging with food and water ad libitum. The mice were acclimated for at least 5 days prior to tumor implantation with tumor fragments. The Vehicle Control group contained 11 mice, groups 2-6 contained 8 mice/group, and the rest of groups contained 9 mice/group.
This cell line was grown and implanted to the animals as described in Example 11.
Tumor measurements were determined as disclosed in Example 4. […] Treatments were initiated on DPI 17.
PM00104 was provided in the form of vials of lyophilized PM00104 powder which was reconstituted with water for injection.
as §3, §4
The definition and criteria for the evaluation of potentiation and the degree of additivity for the combination therapy were the same as those disclose in Example 4.

[3] = system: BxPC-3 tumors; settings: mg/kg/day: PM00104 0.90 IV, gemcitabine 180 IP
Experimental: as §1, §2
Bacterial cultures were performed on aliquots of the cells prepared for implantation.
Treatments were initiated on DPI 14.
as §3, §4

[4] = PM00104 0.23 IV, paclitaxel 12.5 IP mg/kg/day (G4, G11, G12)
[5] = PM00104 0.45 IV, paclitaxel 12.5 IP mg/kg/day (G3, G9, G10)
[6] = PM00104 0.90 IV, paclitaxel 12.5 IP mg/kg/day (G2, G5, G6, G7, G8)

## COc1c(C)cc2c(c1O)[C@@H]1[C@@H]3Cc4c(OC(C)=O)c(C)c5c(c4[C@H](CNC(=O)/C=C/c4cccc(C(F)(F)F)c4)N3[C@@H](O)[C@H](C2)N1C)OCO5 [PM00104]
[1]; day 9, erlotinib 15 PO
  % Inhibition: −3.8%
[1]; day 9, erlotinib 30 PO
  % Inhibition: −3.8%
[1]; day 9, erlotinib 50 PO
  % Inhibition: −3.8%
  % T/C on day: 103.8%
[1]; day 12, erlotinib 15 PO
  % Inhibition: 10.0%
[1]; day 12, erlotinib 30 PO
  % Inhibition: 10.0%
[1]; day 12, erlotinib 50 PO
  % Inhibition: 10.0%
  % T/C on day: 90.0%
[1]; day 15, erlotinib 15 PO
  % Inhibition: −20.0%
[1]; day 15, erlotinib 30 PO
  % Inhibition: −20.0%
[1]; day 15, erlotinib 50 PO
  % Inhibition: −20.0%
  % T/C on day: 120.0%
[1]; day 19, erlotinib 15 PO
  % Inhibition: 1.4%
[1]; day 19, erlotinib 30 PO
  % Inhibition: 1.4%
[1]; day 19, erlotinib 50 PO
  % Inhibition: 1.4%
  % T/C on day: 98.6%
[1]; day 21, erlotinib 15 PO
  % Inhibition: 30.1%
[1]; day 21, erlotinib 30 PO
  % Inhibition: 30.1%
[1]; day 21, erlotinib 50 PO
  % Inhibition: 30.1%
  % T/C on day: 69.9%
[1]; day 26, erlotinib 15 PO
  % Inhibition: 17.4%
[1]; day 26, erlotinib 30 PO
  % Inhibition: 17.4%
[1]; day 26, erlotinib 50 PO
  % Inhibition: 17.4%
  % T/C on day: 82.6%
[1]; day 29, erlotinib 15 PO
  % Inhibition: 30.6%
[1]; day 29, erlotinib 30 PO
  % Inhibition: 30.6%
[1]; day 29, erlotinib 50 PO
  % Inhibition: 30.6%
  % T/C on day: 69.4%
[1]; day 33, erlotinib 15 PO
  % Inhibition: 17.8%
[1]; day 33, erlotinib 30 PO
  % Inhibition: 17.8%
[1]; day 33, erlotinib 50 PO
  % Inhibition: 17.8%
  % T/C on day: 82.2%
[1]; day 40, erlotinib 15 PO
  % Inhibition: 14.2%
[1]; day 40, erlotinib 30 PO
  % Inhibition: 14.2%
[1]; day 40, erlotinib 50 PO
  % Inhibition: 14.2%
  % T/C on day: 85.8%
[2]; [4]
  % T/C on day 17: 97.5%
  % T/C on day 20: 113.0%
  % T/C on day 24: 89.9%
  % T/C on day 27: 75.9%
  % T/C on day 32: 72.7%
  % T/C on day 35: 62.4%
  % T/C on day 39: 57.6%
  % T/C on day 47: 66.8%
[2]; [5]
  % T/C on day 17: 100.0%
  % T/C on day 20: 109.2%
  % T/C on day 24: 91.3%
  % T/C on day 27: 71.0%
  % T/C on day 32: 51.8%
  % T/C on day 35: 38.4%
  % T/C on day 39: 31.8%
  % T/C on day 47: 21.5%
[2]; [6]
  % T/C on day 17: 98.5%
  % T/C on day 20: 95.6%
  % T/C on day 24: 56.9%
  % T/C on day 27: 46.4%
  % T/C on day 32: 31.2%
  % T/C on day 35: 22.6%
  % T/C on day 39: 14.5%
  % T/C on day 47: 9.5%
[2]; day 14, PM00104 0.23, doxorubicin 6, paclitaxel 12.5 mg/kg/day
  % Inhibition: 2.5%
[2]; day 14, PM00104 0.45, doxorubicin 6, paclitaxel 12.5 mg/kg/day
  % Inhibition: 0.0%
[2]; day 14, PM00104 0.90, paclitaxel 12.5 mg/kg/day
  % Inhibition: 1.5%
[2]; day 14, PM00104 0.9 and doxorubicin 6 mg/kg/day
  % Inhibition: 1.5%
[2]; day 20, PM00104 0.23, doxorubicin 6, paclitaxel 12.5 mg/kg/day
  % Inhibition: −13.0%
[2]; day 20, PM00104 0.45, doxorubicin 6, paclitaxel 12.5 mg/kg/day
  % Inhibition: −9.2%
[2]; day 20, PM00104 0.90, paclitaxel 12.5 mg/kg/day
  % Inhibition: 4.4%
[2]; day 20, PM00104 0.9 and doxorubicin 6 mg/kg/day
  % Inhibition: 4.4%
[2]; day 24, PM00104 0.23, doxorubicin 6, paclitaxel 12.5 mg/kg/day
  % Inhibition: 10.1%
[2]; day 24, PM00104 0.45, doxorubicin 6, paclitaxel 12.5 mg/kg/day
  % Inhibition: 8.7%
[2]; day 24, PM00104 0.90, paclitaxel 12.5 mg/kg/day
  % Inhibition: 43.1%
[2]; day 24, PM00104 0.9 and doxorubicin 6 mg/kg/day
  % Inhibition: 43.1%
[2]; day 27, PM00104 0.23, doxorubicin 6, paclitaxel 12.5 mg/kg/day
  % Inhibition: 24.1%
[2]; day 27, PM00104 0.45, doxorubicin 6, paclitaxel 12.5 mg/kg/day
  % Inhibition: 29.0%
[2]; day 27, PM00104 0.90, paclitaxel 12.5 mg/kg/day
  % Inhibition: 53.6%
[2]; day 27, PM00104 0.9 and doxorubicin 6 mg/kg/day
  % Inhibition: 53.6%
[2]; day 32, PM00104 0.23, doxorubicin 6, paclitaxel 12.5 mg/kg/day
  % Inhibition: 27.3%
[2]; day 32, PM00104 0.45, doxorubicin 6, paclitaxel 12.5 mg/kg/day
  % Inhibition: 48.2%
[2]; day 32, PM00104 0.90, paclitaxel 12.5 mg/kg/day
  % Inhibition: 68.8%
[2]; day 32, PM00104 0.9 and doxorubicin 6 mg/kg/day
  % Inhibition: 68.8%
[2]; day 35, PM00104 0.23, doxorubicin 6, paclitaxel 12.5 mg/kg/day
  % Inhibition: 37.6%
[2]; day 35, PM00104 0.45, doxorubicin 6, paclitaxel 12.5 mg/kg/day
  % Inhibition: 61.6%
[2]; day 35, PM00104 0.90, paclitaxel 12.5 mg/kg/day
  % Inhibition: 77.4%
[2]; day 35, PM00104 0.9 and doxorubicin 6 mg/kg/day
  % Inhibition: 77.4%
[2]; day 39, PM00104 0.23, doxorubicin 6, paclitaxel 12.5 mg/kg/day
  % Inhibition: 42.4%
[2]; day 39, PM00104 0.45, doxorubicin 6, paclitaxel 12.5 mg/kg/day
  % Inhibition: 68.2%
[2]; day 39, PM00104 0.90, paclitaxel 12.5 mg/kg/day
  % Inhibition: 85.5%
[2]; day 39, PM00104 0.9 and doxorubicin 6 mg/kg/day
  % Inhibition: 85.5%
[2]; day 47, PM00104 0.23, doxorubicin 6, paclitaxel 12.5 mg/kg/day
  % Inhibition: 33.2%
[2]; day 47, PM00104 0.45, doxorubicin 6, paclitaxel 12.5 mg/kg/day
  % Inhibition: 78.5%
[2]; day 47, PM00104 0.90, paclitaxel 12.5 mg/kg/day
  % Inhibition: 90.5%
[2]; day 47, PM00104 0.9 and doxorubicin 6 mg/kg/day
  % Inhibition: 90.5%
[3]; day 14
  % Inhibition: −0.9%
  % T/C on day: 100.9%
[3]; day 16
  % Inhibition: −40.3%
  % T/C on day: 140.3%
[3]; day 19
  % Inhibition: −26.1%
  % T/C on day: 126.1%
[3]; day 22
  % Inhibition: −16.5%
  % T/C on day: 116.5%
[3]; day 26
  % Inhibition: 7.8%
  % T/C on day: 92.2%
[3]; day 29
  % Inhibition: −6.3%
  % T/C on day: 106.3%
[3]; day 34
  % Inhibition: −16.8%
[3]; day 40
  % Inhibition: −26.3%
  % T/C on day: 126.3%
